± gives the expanded uncertainty stated by the source.
Test: xn = mol fraction of the nth substance listed
Conditions: 100.7 kPa, Liquid; for viscosity: Falling or rolling sphere viscometry; for speed of sound: Frequency=3 MHz, Sing-around technique in a fixed-path interferometer; for mass density: Vibrating tube method

CCCCN [1-butanamine] + CCCC[n+]1ccn(C)c1.O=S(=O)([N-]S(=O)(=O)C(F)(F)F)C(F)(F)F
Conditions	mass density [kg/m3]	speed of sound [m/s]	viscosity [mPa·s]
298.15 K, x2 = 0	733.33 ± 0.2	1246.5 ± 1.3	0.47 ± 0.03
298.15 K, x2 = 0.0261	–	1234 ± 1.3	–
298.15 K, x2 = 0.0486	–	1225.4 ± 1.3	–
298.15 K, x2 = 0.0804	–	1216.5 ± 1.3	–
298.15 K, x2 = 0.1026	916.12 ± 0.42	1211.6 ± 1.3	2.11 ± 0.13
298.15 K, x2 = 0.2026	1042.14 ± 0.29	1203.5 ± 1.3	4.44 ± 0.27
298.15 K, x2 = 0.3004	1134.03 ± 0.25	1203.2 ± 1.3	7.22 ± 0.44
298.15 K, x2 = 0.4056	1209.89 ± 0.27	1205.1 ± 1.4	11.01 ± 0.67
298.15 K, x2 = 0.5051	1266.69 ± 0.31	1208 ± 1.4	14.99 ± 0.91
298.15 K, x2 = 0.6119	1316.23 ± 0.37	1212 ± 1.4	20.24 ± 1.2
298.15 K, x2 = 0.7025	1351.49 ± 0.42	1215.1 ± 1.4	25.4 ± 1.5
298.15 K, x2 = 0.8002	1383.95 ± 0.48	1218.1 ± 1.5	32.04 ± 1.9
298.15 K, x2 = 0.9015	1412.83 ± 0.55	1222.9 ± 1.5	40.3 ± 2.4
303.15 K, x2 = 0	728.5 ± 0.2	1223.9 ± 1.3	0.44 ± 0.03
303.15 K, x2 = 0.0261	–	1212.2 ± 1.3	–
303.15 K, x2 = 0.0486	–	1204.5 ± 1.3	–
303.15 K, x2 = 0.0804	–	1196.3 ± 1.3	–
303.15 K, x2 = 0.1026	911.59 ± 0.35	1192.1 ± 1.3	1.59 ± 0.1
303.15 K, x2 = 0.2026	1037.64 ± 0.27	1186.4 ± 1.3	3.23 ± 0.2
303.15 K, x2 = 0.3004	1129.36 ± 0.26	1187.1 ± 1.3	5.31 ± 0.32
303.15 K, x2 = 0.4056	1205.12 ± 0.28	1190 ± 1.4	8.35 ± 0.51
303.15 K, x2 = 0.5051	1262.02 ± 0.32	1193.8 ± 1.4	11.71 ± 0.71
303.15 K, x2 = 0.6119	1311.69 ± 0.37	1198.9 ± 1.4	16.01 ± 0.97
303.15 K, x2 = 0.7025	1346.8 ± 0.42	1203 ± 1.4	20.08 ± 1.2
303.15 K, x2 = 0.8002	1379.23 ± 0.48	1208 ± 1.5	25.55 ± 1.6
303.15 K, x2 = 0.9015	1408.07 ± 0.55	1212.9 ± 1.5	32.07 ± 1.9
308.15 K, x2 = 0	723.67 ± 0.2	1201.3 ± 1.3	0.41 ± 0.03
308.15 K, x2 = 0.0261	–	1190.3 ± 1.3	–
308.15 K, x2 = 0.0486	–	1183.5 ± 1.3	–
308.15 K, x2 = 0.0804	–	1177.2 ± 1.3	–
308.15 K, x2 = 0.1026	907.02 ± 0.35	1174.1 ± 1.3	1.31 ± 0.08
308.15 K, x2 = 0.2026	1033.16 ± 0.27	1169 ± 1.3	2.63 ± 0.16
308.15 K, x2 = 0.3004	1124.87 ± 0.26	1170.3 ± 1.3	4.2 ± 0.26
308.15 K, x2 = 0.4056	1200.55 ± 0.28	1174.5 ± 1.4	6.58 ± 0.4
308.15 K, x2 = 0.5051	1257.23 ± 0.32	1178.9 ± 1.4	9.28 ± 0.56
308.15 K, x2 = 0.6119	1306.91 ± 0.37	1184.8 ± 1.4	12.71 ± 0.77
308.15 K, x2 = 0.7025	1342.12 ± 0.42	1189.6 ± 1.4	16.01 ± 0.97
308.15 K, x2 = 0.8002	1374.49 ± 0.48	1195.6 ± 1.5	20.49 ± 1.2
308.15 K, x2 = 0.9015	1403.3 ± 0.54	1200.9 ± 1.5	26.13 ± 1.6
313.15 K, x2 = 0	718.66 ± 0.2	1178.7 ± 1.3	0.39 ± 0.02
313.15 K, x2 = 0.0261	–	1169.5 ± 1.3	–
313.15 K, x2 = 0.0486	–	1163.2 ± 1.3	–
313.15 K, x2 = 0.0804	–	1157.5 ± 1.3	–
313.15 K, x2 = 0.1026	902.44 ± 0.35	1155 ± 1.3	1.1 ± 0.07
313.15 K, x2 = 0.2026	1028.65 ± 0.27	1152.5 ± 1.3	1.99 ± 0.12
313.15 K, x2 = 0.3004	1120.14 ± 0.26	1155.1 ± 1.3	3.21 ± 0.19
313.15 K, x2 = 0.4056	1195.66 ± 0.28	1160 ± 1.3	4.98 ± 0.3
313.15 K, x2 = 0.5051	1252.53 ± 0.31	1165.2 ± 1.4	7.11 ± 0.43
313.15 K, x2 = 0.6119	1302.05 ± 0.37	1171.9 ± 1.4	9.9 ± 0.6
313.15 K, x2 = 0.7025	1337.26 ± 0.42	1177.8 ± 1.4	12.8 ± 0.78
313.15 K, x2 = 0.8002	1369.77 ± 0.48	1184.5 ± 1.5	16.65 ± 1
313.15 K, x2 = 0.9015	1398.51 ± 0.54	1190.5 ± 1.5	21.62 ± 1.3
318.15 K, x2 = 0	714.1 ± 0.2	1156.2 ± 1.3	0.37 ± 0.02
318.15 K, x2 = 0.0261	–	1148.2 ± 1.3	–
318.15 K, x2 = 0.0486	–	1143.2 ± 1.3	–
318.15 K, x2 = 0.0804	–	1138.2 ± 1.3	–
318.15 K, x2 = 0.1026	898.17 ± 0.35	1137.8 ± 1.3	0.87 ± 0.05
318.15 K, x2 = 0.2026	1024.27 ± 0.27	1137.2 ± 1.3	1.57 ± 0.1
318.15 K, x2 = 0.3004	1115.68 ± 0.26	1141.4 ± 1.3	2.53 ± 0.15
318.15 K, x2 = 0.4056	1191.05 ± 0.28	1146.8 ± 1.3	3.95 ± 0.24
318.15 K, x2 = 0.5051	1247.99 ± 0.31	1152.5 ± 1.4	5.65 ± 0.34
318.15 K, x2 = 0.6119	1297.45 ± 0.37	1160 ± 1.4	7.95 ± 0.48
318.15 K, x2 = 0.7025	1332.6 ± 0.41	1167 ± 1.4	10.45 ± 0.63
318.15 K, x2 = 0.8002	1364.99 ± 0.47	1174.2 ± 1.5	13.75 ± 0.83
318.15 K, x2 = 0.9015	1393.75 ± 0.54	1180.5 ± 1.5	17.99 ± 1.1
323.15 K, x2 = 0	709.21 ± 0.2	1133.5 ± 1.3	0.35 ± 0.02
323.15 K, x2 = 0.0261	–	1126.2 ± 1.3	–
323.15 K, x2 = 0.0486	–	1121.5 ± 1.3	–
323.15 K, x2 = 0.0804	–	1117.8 ± 1.3	–
323.15 K, x2 = 0.1026	893.96 ± 0.56	1118.6 ± 1.3	0.74 ± 0.05
323.15 K, x2 = 0.2026	1019.8 ± 0.4	1119 ± 1.3	1.32 ± 0.08
323.15 K, x2 = 0.3004	1110.93 ± 0.34	1124.5 ± 1.3	2.09 ± 0.13
323.15 K, x2 = 0.4056	1186.44 ± 0.32	1130.6 ± 1.3	3.26 ± 0.2
323.15 K, x2 = 0.5051	1243.22 ± 0.34	1137.2 ± 1.4	4.64 ± 0.28
323.15 K, x2 = 0.6119	1292.55 ± 0.38	1145.6 ± 1.4	6.49 ± 0.39
323.15 K, x2 = 0.7025	1327.75 ± 0.42	1153 ± 1.4	8.48 ± 0.51
323.15 K, x2 = 0.8002	1360.33 ± 0.48	1161.3 ± 1.5	11.32 ± 0.69
323.15 K, x2 = 0.9015	1389.17 ± 0.54	1168.3 ± 1.5	14.91 ± 0.9

Source: the NIST ThermoML archive (doi:10.1016/j.jct.2015.09.022)
